Experimental data reported in patent publication US20230202989A1, “COMPOUNDS” (JANSSEN PHARMACEUTICA NV, priority 2020, published 2023).

What was measured:
IL-1β = assay: PBMC assay: inhibition of IL-1β release after LPS stimulation (MSD); format: cell-based; details: Homo sapiens, PBMC, 6 h, human PBMCs, 100 ng/ml LPS for 6 hrs, MSD, 96 well plates; read-out: IL1β IC50
How it was run: (§1)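 Cryopreserved human PBMCs (7.5×10^4/well) in RPMI/10% FBS were preincubated with serially diluted compound for 30 min at 37 °C, then stimulated with 100 ng/ml LPS for 6 h. Supernatant IL-1β and TNF measured by MSD. IC50 derived for IL-1β, EC50 for TNF.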

TNF = assay: PBMC assay: TNF cytokine levels after LPS stimulation (MSD); format: cell-based; details: Homo sapiens, PBMC, 6 h, human PBMCs, 100 ng/ml LPS for 6 hrs
How it was run: as §1

Row | Compound | IC50 (IL-1β) [µM] | EC50 (TNF) [µM] | melting point [°C]
1 | CC(C)c1nn(CC(=O)Nc2ccc3nncn3n2)c(=O)c2ccc(C(F)(F)F)cc12 [Final Cpd X2, N-([1,2,4]triazolo[4,3-b]pyridazin-6-yl)-2-(4-isopropyl-1-oxo-6-(trifluoromethyl)phthalazin-2(1H)-yl)acetamide] | 0.03 | 5.58 | 246.08
2 | CCN1CC[C@@H](O)[C@@H](NC(=O)Cn2nc(C3CC3)c3cc(C(F)(F)F)ccc3c2=O)C1 [Final Cpd X19] | 0.161 | > 20 | 178.86
3 | CC(C)c1nn(CC(=O)Nc2ccc3nc[nH]c3n2)c(=O)c2ccc(C(F)(F)F)cc12 [Final Cpd X13] | 0.114 | > 20 | 295.46
4 | CC(C)c1nn(CC(=O)Nc2ccc3nccn3n2)c(=O)c2ccc(C(F)(F)F)cc12 [Final Cpd X16] | 0.137 | > 20 | 238.55
5 | CCN1CC[C@@H](NC(=O)Cn2nc(C(C)C)c3cc(C(F)(F)F)ccc3c2=O)[C@H](O)C1 (single isomer, unassigned) [Final Cpd X140] | 4.61 | > 20 | –
6 | CC(C)c1nn(CC(=O)Nc2ccc3cnn(C(F)F)c3c2)c(=O)c2ccc(C(F)(F)F)cc12 [Final Cpd X146] | 5.72 | > 20 | –
7 | CC(C)c1nn(CC(=O)N[C@@H]2CC[C@@H]2O)c(=O)c2ccc(C(F)(F)F)cc12 [Final Cpd X95] | 1.1 | > 20 | –
8 | CC(C)Cc1nn(CC(=O)Nc2ccc3nncn3c2)c(=O)c2ccc(C(F)(F)F)cc12 [Final Cpd X144] | 4.95 | > 20 | –
9 | CC1(c2nn(CC(=O)Nc3ccc4nncn4c3)c(=O)c3ccc(C(F)(F)F)cc23)CC1 [Final Cpd X125] | 2.88 | > 20 | –
10 | CCc1nn(CC(=O)Nc2ccn(C(C)C)n2)c(=O)c2ccc(C3CC3)cc12 [X-1026] | > 20 | > 20 | –
11 | Cc1nc2ccc(NC(=O)Cn3nc(C(C)C)c4cc(C(F)(F)F)ccc4c3=O)cn2n1 [Final Cpd X57] | 0.545 | > 20 | –
12 | Cc1ncc2ccc(NC(=O)Cn3nc(C(C)C)c4cc(C(F)(F)F)ccc4c3=O)cn12 [Final Cpd X48] | 0.398 | > 20 | –
13 | CCc1nn(CC(=O)N[C@H]2CC[C@H](O)CC2)c(=O)c2ccc(Br)cc12 [Final Cpd 24, trans-2-(6-bromo-4-ethyl-1-oxo-phthalazin-2-yl)-N-(4-hydroxycyclohexyl)acetamide] | 0.89 | > 10 | –
14 | CC(C)c1nn(CC(=O)NC2(C)CC(O)C2)c(=O)c2ccc(C(F)(F)F)cc12 (stereo not drawn) [Final Cpd X121] | 2.65 | > 20 | –
15 | CC(=O)N1C[C@H](O)C[C@@H](NC(=O)Cn2nc(C(C)C)c3cc(C(F)(F)F)ccc3c2=O)C1 (single isomer, unassigned) [Final Cpd X138] | 4.02 | > 20 | –

Further molecules by falling IC50 (IL-1β), results first:

Row | IC50 (IL-1β) [µM] | EC50 (TNF) [µM] | melting point [°C] | Compound
16 | 15.3 | > 20 | – | CC(=O)N1C[C@@H](O)C[C@@H](NC(=O)Cn2nc(C(C)C)c3cc(C(F)(F)F)ccc3c2=O)C1 (single isomer, unassigned) [Final Cpd X164]
17 | 1.94 | > 20 | – | CC(C)c1nn(CC(=O)Nc2ccc3cnn(C)c3c2)c(=O)c2ccc(C(F)(F)F)cc12 [Final Cpd X114]
18 | 0.936 | > 20 | 215.56 | CC(C)c1nn(CC(=O)Nc2ccn3ncnc3c2)c(=O)c2ccc(C(F)(F)F)cc12 [Final Cpd X90]
19 | 0.388 | > 20 | – | CC(C)c1nn(CC(=O)N[C@H]2CC[C@@](C)(O)CC2)c(=O)c2ccc(C(F)(F)F)cc12 [Final Cpd X46]
20 | 0.196 | > 20 | – | CO[C@]1(C)C[C@H](NC(=O)Cn2nc(C(C)C)c3cc(Br)ccc3c2=O)C1 [X-1088]
21 | 0.172 | > 20 | 294.49 | O=C(Cn1nc(C2CC2)c2cc(C(F)(F)F)ccc2c1=O)Nc1ccc2nncn2c1 [Final Cpd X23]
22 | 0.17 | > 20 | 232.18 | CC(C)c1nn(CC(=O)Nc2cc(F)[nH]c(=O)c2)c(=O)c2ccc(C(F)(F)F)cc12 [Final Cpd X22]
23 | 0.164 | 15.5 | 222.09 | CC(C)c1nn(CC(=O)Nc2ccc3cncn3c2)c(=O)c2ccc(C(F)(F)F)cc12 [Final Cpd X20]
